According to patent US11701363B2, “Methods for treating viral disorders” (TRUSTEES OF BOSTON UNIVERSITY, priority 2009, dated 2023):
Like-named read-outs stand apart in the source and are kept apart here.

What was measured:
HIV-1 = details: OD converted to pg of protein; compared with vehicle alone
Method: Virus production (p24 release) was examined in an HIV-1-infected monocyte line. Cells were treated or not treated with HDAC-inhibitors and other compounds. P24 release expressed as optical density (“OD”) (FIG. 13), and then converted to pg of protein (FIG. 14). […] DMSO was vehicle for some of the compounds tested.

P3HR1 cells = assay: Viable cell counts of P3HR1 cells (toxicity assays and combination treatment with GCV)
Method: The EBV-positive B lymphoma cell line P3HR1 was used throughout these assays. The P3HR1 cell line was originally derived from Burkitt's lymphoma patient. EBV maintains a latent state of replication in this cell line. Cells were maintained in RPMI 1640 with 10% fetal bovine serum containing 100 U penicillin per ml and 100 μg streptomycin per ml. The HDAC inhibitors used were from five different classes: a) short chain fatty acids, b) hydroxamic acids, c) benzamides, d) cyclic tetrapeptides, and e) largazoles.
Toxicity assays with two anti-herpesvirus drugs, Gancicovir (GCV) and Penciclovir (PCV), treated to P3HR1 cells alone was conducted as a control. A total of 3×10^5 P3HR1 cells were incubated with various concentrations of GCV or PCV and incubated for 6 days. Viable cell counts were measured and toxicity was expressed as percentage of cell growth compared to untreated cells.

EBV TK = assay: TK mRNA level by reverse transcription and real-time PCR in P3HR1 cells; assay type: cell-based, Epstein-Barr virus
Method: To measure the relative level of TK mRNA in various total RNA preparations, reverse transcription and quantitative PCR using real time PCR technology was used. Five micrograms of total RNA was reverse-transcribed using random hexamer primers and Superscript III cDNA synthesis kit (Invitrogen). The cDNA was diluted to a final volume of 60 μl with sterile water, 8 μl of which was then used in each real time PCR reaction in an ABI 7500 […] using SYBR-Green technology. Primers used for the amplification of TK were EBV-TK1-F: 5′-[…]-3′; EBV-TK1-R: 5′-[…]-3′. The ß-actin mRNA level in those samples were determined similarly using ß-actin-specific primers Actin/hu-F: 5′-[…]-3′; Actin/hu-R: 5′-[…]-3′. The relative level of TK expression in a sample was calculated following normalization of ß-actin expression level.

viral thymidine kinase = assay: Expression of viral thymidine kinase in EBV-infected lymphocytes; assay type: cell-based
Text: Three such examples are as follows. First, many of the RNA viruses such as HIV and other retroviruses require a reverse transcriptase to transcribe their genome into DNA. A few of the agents that induce expression or activity of retroviruses and their encoded genes, such as, for example, reverse transcriptase, are known to those of ordinary skill in the art. Anti-viral agents such as nucleoside analogs can be administered to the patient. Those substrate analogs will be specifically recognized by the reverse transcriptase that, when incorporated into the infected-cell genome, prevent viral replication and may also result in cell death. Second, many viruses require an active protease to assemble virus capsids to be packaged with viral genome. Protease inhibitors or proteases that alter cleavage patterns so that packaging cannot occur can be specifically targeted with an anti-viral agent that comprises an amino acid analog or toxic conjugate. […] Ganciclovir or famcyclovir, in the presence of the viral thymidine kinase or other viral kinases, destroys the infected cell. Treatment of infected cells with both agents, according to the invention, will selectively destroy EBV virus-infected cells. In another aspect, of infected cells with both agents, according to the invention, will selectively disable or disrupt the viral activity within the cells in vivo.

EBV-TK = assay: Induction of EBV-TK activity in EBV-immortalized B-cells and patient-derived tumor cells; assay type: cell-based, Epstein-Barr virus; details: preliminary in vitro studies
Text: In some embodiments, inducing agents include arginine butyrate and/or other histone deacetylase inhibitors. […] TK expression can be used as a point for attack by anti-viral agents, allowing for treatment of latent infections.
Treatment of patients with viral-associated tumors such as EBV with inducing agents such as arginine butyrate, to induce the expression of EBV-TK, and GCV, to eliminate EBV-TK expressing tumor cells, is an effective, non-toxic therapy. […] Without wishing to be bound by theory, it is believed that just the presence of the EBV genome in latent form would make the tumor susceptible to this combination protocol.

Cc1[nH]c2ccccc2c1CCNCc1ccc(/C=C/C(=O)NO)cc1 [LHB589, panobinostat]
virus production (p24 release) (HIV-1): active

Nc1ccccc1NC(=O)c1ccc(CNC(=O)OCc2cccnc2)cc1 [MS-275, 3-pyridinylmethyl [[4-[[(2-aminophenyl)amino]carbonyl]phenyl]methyl] carbamate]
sensitizing P3HR1 cells to GCV-mediated effects (P3HR1 cells; 500 nM): as efficient as 1.0 mM NaB
sensitizing P3HR1 cells to GCV-mediated killing after short exposure (P3HR1 cells; 24 hr exposure to MS-275+GCV, then GCV for up to 6 days): sensitized the cells to GCV-mediated effects as efficiently as a 72 hr continuous treatment
TK expression (EBV TK; 500 nM and higher concentrations): strongly induced TK expression
TK expression (EBV TK; 6 hr post treatment): induced

CCCC(=O)[O-].[Na+] [NaB, Na-butyrate]
optimal concentration for combination treatment with GCV (P3HR1 cells): 1.0 mM
cell growth with inducing agent alone (P3HR1 cells; NaB alone at a concentration higher than 1.0 mM): reduces cell growth to a significant degree
synergistic effects of GCV (P3HR1 cells; NaB at concentrations higher than 1.0 mM): lost

Nc1nc2c(ncn2CCC(CO)CO)c(=O)[nH]1 [PCV, Penciclovir]
toxicity to P3HR1 cells (percentage of cell growth compared to untreated cells) (P3HR1 cells): less toxic to the cells compared to GCV
level of inhibition of cell growth at higher concentrations (P3HR1 cells; in combination with Na-butyrate, concentrations higher than 40 μM): did not change significantly

CCCCCCCCCCCCCC(=O)O[C@@H]1[C@@H](C)[C@@]2(O)[C@@H](C=C(CO)C[C@]3(O)C(=O)C(C)=C[C@@H]23)[C@@H]2C(C)(C)[C@]12OC(C)=O [PMA, phorbol myristate acetate]
virus production (p24 release) (HIV-1): active

O=C(/C=C/c1cccc(S(=O)(=O)Nc2ccccc2)c1)NO [PXD101, Belinostat]
TK expression (EBV TK; 5 μM): high level of TK expression

CCC(Nc1ncnc2ccccc12)C(=O)O (centres unmarked) [RB3]
virus production (p24 release) (HIV-1): increased viral production at levels similar to the control of vehicle alone

O=C(CCCCCCC(=O)Nc1ccccc1)NO [SAHA, suberoyl anilide hydroxamic acid]
reduction of cell growth in combination treatment with GCV (P3HR1 cells): less effective in reducing cell growth when combined with an antiviral agent compared to butyrate
TK expression (TK mRNA level) (EBV TK): higher level than that seen with efficient concentrations of butyrate (1.0 mM)

CCC(C)(C)C(=O)O [ST20, 2,2-dimethyl butyrate]
virus production (p24 release) (HIV-1): increased viral production at levels similar to the control of vehicle alone

O=C(CCCCCN1C(=O)c2cccc3cccc(c23)C1=O)NO [Scriptaid]
reduction of cell growth in combination treatment with GCV (P3HR1 cells; especially at 500 nM and 1 μM): strong synergistic effect with GCV

CC(/C=C/C(=O)NO)=C\[C@@H](C)C(=O)c1ccc(N(C)C)cc1 [TSA, trichostatin A]
virus production (p24 release) (HIV-1): active

CCCC(CCC)C(=O)O [VA, valproic acid]
reduction of cell growth in combination treatment with GCV (P3HR1 cells): very similar activity
TK expression (TK mRNA level) (EBV TK): less efficient than NaB

CCC(=O)CCCCC[C@@H]1NC(=O)[C@H]2CCCCN2C(=O)[C@H]([C@@H](C)CC)NC(=O)[C@H](Cc2cn(OC)c3ccccc23)NC1=O [apicidin]
cell growth without any GCV (P3HR1 cells; 200 nM): significantly retarded
toxicity to the cells (P3HR1 cells; 500 nM): very toxic to the cells
toxicity to the cells (P3HR1 cells; apicidin alone, concentrations higher than 200 nM): quite toxic to the cells
reduction of cell growth over cells treated with apicidin alone (P3HR1 cells; combination with GCV, 100 nM and 200 nM): 40-50%
virus production (p24 release) (HIV-1): active

CC(C)C(N)=O [isobutyramide]
expression of viral thymidine kinase and other viral protein kinases (viral thymidine kinase): enhance expression

CCCCCCCC(=O)SCC/C=C/[C@@H]1CC(=O)NCc2nc(cs2)C2=N[C@@](C)(CS2)C(=O)N[C@@H](C(C)C)C(=O)O1 [largazole]
virus production (p24 release) (HIV-1): active

Oxamflatin
reduction of cell growth in combination treatment with GCV (P3HR1 cells): synergistic activity with GCV
activity level (growth suppression) in combination with GCV (P3HR1 cells; 200 nM): more than what typically seen with 1.0 mM NaB

arginine butyrate
EBV-TK activity (EBV-TK): induces EBV-TK activity
expression of viral thymidine kinase and other viral protein kinases (viral thymidine kinase): enhance expression
virus production (p24 release) (HIV-1): active
